Assay [1] has as its target GDP-bound KRAS wild-type protein (Homo sapiens, UniProt P01116). The assay is described as follows: Binding to KRAS by surface plasmon resonance (SPR), Single Cycle Kinetics. To be noted: SPR, Single Cycle Kinetics, 1:1 binding model; GDP-bound KRAS wild-type protein; read-out: KRAS KD. For orientation: In SPR one partner is held on a chip, and binding of the other changes the refractive index at the surface.

For assay [2], the target named is GDP-bound NRAS wild-type protein (Homo sapiens, UniProt P01111). As to the kind of experiment: Binding to NRAS by surface plasmon resonance (SPR), Single Cycle Kinetics. To be noted: SPR; GDP-bound NRAS wild-type protein vs GDP-bound KRAS wild-type protein; KD ratio class.
Assay [3] has as its target GDP-bound HRAS wild-type protein (Homo sapiens, UniProt P01112). The assay is described as follows: Binding to HRAS by surface plasmon resonance (SPR), Single Cycle Kinetics. To be noted: SPR; GDP-bound HRAS wild-type protein vs GDP-bound KRAS wild-type protein; KD ratio class.
Assay [4] deals with human lung cancer strain NCI-H441.
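Throughout, for IC50: cell proliferation inhibition after four days measured by CellTiter-Glo.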

GDP-bound KRAS wild-type protein, sequence (P01116 whole entry): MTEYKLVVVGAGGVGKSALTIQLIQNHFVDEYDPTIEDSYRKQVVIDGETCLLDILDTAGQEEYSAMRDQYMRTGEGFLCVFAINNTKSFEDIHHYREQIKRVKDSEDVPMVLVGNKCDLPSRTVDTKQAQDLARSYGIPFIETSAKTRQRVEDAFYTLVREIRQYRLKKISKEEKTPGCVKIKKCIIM
GDP-bound HRAS wild-type protein, sequence (P01112 whole entry): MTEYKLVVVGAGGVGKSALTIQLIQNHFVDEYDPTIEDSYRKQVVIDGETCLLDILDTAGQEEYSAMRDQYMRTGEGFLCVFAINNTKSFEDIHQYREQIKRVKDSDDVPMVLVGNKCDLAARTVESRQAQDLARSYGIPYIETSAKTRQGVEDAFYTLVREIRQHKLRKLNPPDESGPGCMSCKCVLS
GDP-bound NRAS wild-type protein, sequence (P01111 whole entry): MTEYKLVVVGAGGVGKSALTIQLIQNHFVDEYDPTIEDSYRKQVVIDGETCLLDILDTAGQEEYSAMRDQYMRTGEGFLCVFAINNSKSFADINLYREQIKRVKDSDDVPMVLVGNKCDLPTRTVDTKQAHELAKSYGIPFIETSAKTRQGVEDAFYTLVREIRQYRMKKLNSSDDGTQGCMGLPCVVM

Consider `CCCOC[C@H]1C(=O)N[C@@H]([C@@H](C)CC)C(=O)N(C)CC(=O)N(C)[C@H]2C/C=C\CCN(C2=O)[C@@H](Cc2ccc(C(F)(F)F)cc2)C(=O)N(C)CC(=O)N[C@@H](CCc2cc(F)c(C(F)(F)F)c(F)c2)C(=O)N2C[C@H](OCC)C[C@H]2C(=O)NC2(CC(C)(C)C2)C(=O)N(C)[C@@H](C2CCCC2)C(=O)N(C)[C@H](C(=O)N(C)C)CC(=O)N1C` [PP1398, (2S,8S,12R,14S,20S,23S,27S,30S,36S,38Z)-20-cyclopentyl-8-[2-[3,5-difluoro-4-(trifluoromethyl)phenyl]ethyl]-12-ethoxy-N,N,3′,3′,4,19,22,26,32,35-decamethyl-30-[(1S)-1-methylpropyl]-3,6,9,15,18,21,25,28,31,34,42-undecaoxo-27-(propoxymethyl)-2-[[4-(trifluoromethyl)phenyl]methyl]spiro[1,4,7,10,16,19,22,26,29,32,35-undecazatricyclo[34.5.1.0^10,14]dotetracont-38-ene-17,1′-cyclobutane]-23-carboxamide], for which, in assay [1], the Kd is 0.032 nM. Further, the “NRAS/KRAS (ratio of KD value for NRAS to KD value for KRAS)” value in assay [2] is “A (a compound having 10 or more and less than 20 is denoted as A)”. In addition, the “HRAS/KRAS (ratio of KD value for HRAS to KD value for KRAS)” value in assay [3] is “A (a compound having 10 or more and less than 20 is denoted as A)”. The IC50 in assay [4] is 2.3 nM.

For the compound `CCCOC[C@H]1C(=O)N[C@@H]([C@@H](C)CC)C(=O)N(C)CC(=O)N(C)[C@H]2C/C=C\CCN(C2=O)[C@@H](Cc2ccc(C(F)(F)F)cc2)C(=O)N(C)CC(=O)N[C@@H](CCc2cc(F)c(C(F)(F)F)c(F)c2)C(=O)N2C[C@H](OCC)C[C@H]2C(=O)NC2(CCCC2)C(=O)N(C)[C@@H](C2CCCC2)C(=O)N(C)[C@H](C(=O)N2CCCC2)CC(=O)N1C` [PP1399], the Kd in assay [1] is 0.19 nM. The “NRAS/KRAS (ratio of KD value for NRAS to KD value for KRAS)” value in assay [2] is “A (a compound having 10 or more and less than 20 is denoted as A)”. The “HRAS/KRAS (ratio of KD value for HRAS to KD value for KRAS)” value in assay [3] was “A (a compound having 10 or more and less than 20 is denoted as A)”. 18.8 nM corresponded to half-maximal inhibition in assay [4] (IC50).

For `CCCOC[C@H]1C(=O)N[C@@H]([C@@H](C)CC)C(=O)N(C)CC(=O)N(C)[C@H]2C/C=C\CCN(C2=O)[C@@H](Cc2ccc(C)cc2)C(=O)N(C)CC(=O)N[C@@H](CCc2cc(F)c(C(F)(F)F)c(F)c2)C(=O)N2C[C@H](OCC)C[C@H]2C(=O)NC2(CC(C)(C)C2)C(=O)N(C)[C@@H](C2CCCC2)C(=O)N(C)[C@H](C(=O)N(C)C)CC(=O)N1C` [PP1400, (2S,8S,12R,14S,20S,23S,27S,30S,36S,38Z)-20-cyclopentyl-8-[2-[3,5-difluoro-4-(trifluoromethyl)phenyl]ethyl]-12-ethoxy-N,N,3′,3′,4,19,22,26,32,35-decamethyl-30-[(1S)-1-methylpropyl]-3,6,9,15,18,21,25,28,31,34,42-undecaoxo-27-(propoxymethyl)-2-(p-tolylmethyl)spiro[1,4,7,10,16,19,22,26,29,32,35-undecazatricyclo[34.5.1.0^10,14]dotetracont-38-ene-17,1′-cyclobutane]-23-carboxamide], the Kd in assay [1] turned out to be 0.049 nM. The “NRAS/KRAS (ratio of KD value for NRAS to KD value for KRAS)” value in assay [2] was “A (a compound having 10 or more and less than 20 is denoted as A)”. For the same compound, the “HRAS/KRAS (ratio of KD value for HRAS to KD value for KRAS)” value in assay [3] is “B (a compound having 3 or more and less than 10 is denoted as B)”. Moreover, the IC50 in assay [4] stood at 5.1 nM.

For the compound `CC[C@H](C)[C@@H]1NC(=O)[C@H](CC2CC2)N(C)C(=O)C[C@@H](C(=O)N(C)C)N(C)C(=O)[C@H](C2CCCC2)N(C)C(=O)C2(CCC2)NC(=O)[C@H](CCC(F)F)N(C)C(=O)[C@H](CCc2cc(F)c(C(F)(F)F)c(F)c2)NC(=O)CN(C)C(=O)[C@H](Cc2ccc(C(F)(F)F)cc2)N2CC/C=C\C[C@@H](C2=O)N(C)C(=O)CN(C)C1=O` [PP1402], the equilibrium dissociation constant (Kd) in assay [1] worked out at 0.3 nM. Also, the “NRAS/KRAS (ratio of KD value for NRAS to KD value for KRAS)” value in assay [2] was “A (a compound having 10 or more and less than 20 is denoted as A)”. Moreover, in assay [3], the “HRAS/KRAS (ratio of KD value for HRAS to KD value for KRAS)” value was “A (a compound having 10 or more and less than 20 is denoted as A)”. Besides, the IC50 in assay [4] worked out at 82 nM.

Take `CC[C@H](C)[C@@H]1NC(=O)[C@H](CC2CC2)N(C)C(=O)C[C@@H](C(=O)N(C)C)N(C)C(=O)[C@H](C2CCCC2)N(C)C(=O)C2(CCC2)NC(=O)[C@H](CC(F)F)N(C)C(=O)[C@H](CCc2cc(F)c(C(F)(F)F)c(F)c2)NC(=O)CN(C)C(=O)[C@H](Cc2ccc(C(F)(F)F)cc2)N2CC/C=C\C[C@@H](C2=O)N(C)C(=O)CN(C)C1=O` [PP1403]: in assay [1], the Kd worked out at 0.6 nM. In addition, the “NRAS/KRAS (ratio of KD value for NRAS to KD value for KRAS)” value in assay [2] was “AA (a compound having 20 or more is denoted as AA)”. In assay [3], the “HRAS/KRAS (ratio of KD value for HRAS to KD value for KRAS)” value was “A (a compound having 10 or more and less than 20 is denoted as A)”. The compound further gave an IC50 in assay [4] of 111 nM.

With `CC[C@H](C)[C@@H]1NC(=O)[C@H](CC2CC2)N(C)C(=O)C[C@@H](C)N(C)C(=O)[C@H](C2CCCC2)N(C)C(=O)C2(CCC2)NC(=O)[C@H](CCC(F)F)N(C)C(=O)[C@H](CCc2cc(F)c(C(F)(F)F)c(F)c2)NC(=O)CN(C)C(=O)[C@H](Cc2ccc(C(F)(F)F)cc2)N2CC/C=C\C[C@@H](C2=O)N(C)C(=O)CN(C)C1=O` [PP1404], the Kd in assay [1] amounted to 4.8 nM. The “NRAS/KRAS (ratio of KD value for NRAS to KD value for KRAS)” value in assay [2] was “A (a compound having 10 or more and less than 20 is denoted as A)”. Also, in assay [3], the “HRAS/KRAS (ratio of KD value for HRAS to KD value for KRAS)” value is “A (a compound having 10 or more and less than 20 is denoted as A)”. In assay [4], this compound displayed an IC50 of 498 nM.

With `CC[C@H](C)[C@@H]1NC(=O)[C@H](CC2CC2)N(C)C(=O)C[C@@H](C)N(C)C(=O)[C@H](C2CCCC2)N(C)C(=O)C2(CCC2)NC(=O)[C@H](CC(F)F)N(C)C(=O)[C@H](CCc2cc(F)c(C(F)(F)F)c(F)c2)NC(=O)CN(C)C(=O)[C@H](Cc2ccc(C(F)(F)F)cc2)N2CC/C=C\C[C@@H](C2=O)N(C)C(=O)CN(C)C1=O` [PP1405], in assay [1], the Kd amounted to 8.5 nM. Further, the “NRAS/KRAS (ratio of KD value for NRAS to KD value for KRAS)” value in assay [2] is “A (a compound having 10 or more and less than 20 is denoted as A)”. Moreover, in assay [3], the “HRAS/KRAS (ratio of KD value for HRAS to KD value for KRAS)” value is “A (a compound having 10 or more and less than 20 is denoted as A)”. This compound also had an IC50 in assay [4] of 466 nM.

In the case of `CCO[C@@H]1C[C@H]2C(=O)NC3(CCC3)C(=O)N(C)[C@@H](C3CCCC3)C(=O)N(C)[C@H](C(=O)N(C)C)CC(=O)N(C)[C@@H](CC3CC3)C(=O)N[C@@H]([C@@H](C)CC)C(=O)NCC(=O)N(C)[C@H]3C/C=C\CCN(C3=O)[C@@H](Cc3ccc(C(F)(F)F)cc3)C(=O)N(C)CC(=O)N[C@@H](CCc3cc(F)c(C(F)(F)F)c(F)c3)C(=O)N2C1` [PP1406, (2S,8S,12R,14S,20S,23S,27S,30S,36S,38Z)-20-cyclopentyl-27-(cyclopropylmethyl)-8-[2-[3,5-difluoro-4-(trifluoromethyl)phenyl]ethyl]-12-ethoxy-N,N,4,19,22,26,35-heptamethyl-30-[(1S)-1-methylpropyl]-3,6,9,15,18,21,25,28,31,34,42-undecaoxo-2-[[4-(trifluoromethyl)phenyl]methyl]spiro[1,4,7,10,16,19,22,26,29,32,35-undecazatricyclo[34.5.1.0^10,14]dotetracont-38-ene-17,1′-cyclobutane]-23-carboxamide], the dissociation constant (Kd) in assay [1] stood at 0.072 nM. The “NRAS/KRAS (ratio of KD value for NRAS to KD value for KRAS)” value in assay [2] was “A (a compound having 10 or more and less than 20 is denoted as A)”. For the same compound, in assay [3], the “HRAS/KRAS (ratio of KD value for HRAS to KD value for KRAS)” value was “B (a compound having 3 or more and less than 10 is denoted as B)”. Also, the IC50 in assay [4] was found to be 10.9 nM.

Regarding `CCO[C@@H]1C[C@H]2C(=O)NC3(CCC3)C(=O)N(C)[C@@H](C3CCCC3)C(=O)N(C)[C@H](C(=O)N(C)C)CC(=O)N(C)[C@@H](CC3CC3)C(=O)N[C@@H]([C@@H](C)CC)C(=O)N(C)CC(=O)N(C)[C@H]3C/C=C\CCN(C3=O)[C@@H](Cc3ccc(C)cc3)C(=O)N(C)CC(=O)N[C@@H](CCc3cc(F)c(C(F)(F)F)c(F)c3)C(=O)N2C1` [PP1407, (2S,8S,12R,14S,20S,23S,27S,30S,36S,38Z)-20-cyclopentyl-27-(cyclopropylmethyl)-8-[2-[3,5-difluoro-4-(trifluoromethyl)phenyl]ethyl]-12-ethoxy-N,N,4,19,22,26,32,35-octamethyl-30-[(1S)-1-methylpropyl]-3,6,9,15,18,21,25,28,31,34,42-undecaoxo-2-(p-tolylmethyl)spiro[1,4,7,10,16,19,22,26,29,32,35-undecazatricyclo[34.5.1.0^10,14]dotetracont-38-ene-17,1′-cyclobutane]-23-carboxamide], the Kd in assay [1] stood at 0.074 nM. Moreover, in assay [2], the “NRAS/KRAS (ratio of KD value for NRAS to KD value for KRAS)” value was “A (a compound having 10 or more and less than 20 is denoted as A)”. Besides, the “HRAS/KRAS (ratio of KD value for HRAS to KD value for KRAS)” value in assay [3] is “A (a compound having 10 or more and less than 20 is denoted as A)”. This compound also gave an IC50 in assay [4] of 18.7 nM.

In the case of `CCO[C@@H]1C[C@H]2C(=O)NC3(CCC3)C(=O)N(C)[C@@H](C3CCCC3)C(=O)N(C)[C@H](C(=O)N3CCOCC3)CC(=O)N(C)[C@@H](CC3CC3)C(=O)N[C@@H]([C@@H](C)CC)C(=O)N(C)CC(=O)N(C)[C@H]3C/C=C\CCN(C3=O)[C@@H](Cc3ccc(C)cc3)C(=O)N(C)CC(=O)N[C@@H](CCc3cc(F)c(C(F)(F)F)c(F)c3)C(=O)N2C1` [PP1408], in assay [1], the Kd came out at 0.22 nM. In addition, the “NRAS/KRAS (ratio of KD value for NRAS to KD value for KRAS)” value in assay [2] is “A (a compound having 10 or more and less than 20 is denoted as A)”. For the same compound, the “HRAS/KRAS (ratio of KD value for HRAS to KD value for KRAS)” value in assay [3] is “A (a compound having 10 or more and less than 20 is denoted as A)”. In addition, the 50% inhibitory concentration (IC50) in assay [4] was 37.6 nM.

As usually defined, the Kd is the concentration at which binding is half-saturated. The term IC50 denotes the concentration that gives 50% inhibition. A low value points to inhibition by little substance.

The values above are taken from US20240158446A1, “CYCLIC COMPOUND HAVING SELECTIVE INHIBITORY ACTION ON KRAS OVER HRAS AND NRAS” (CHUGAI SEIYAKU KABUSHIKI KAISHA, priority 2021, published 2024).
